Earlier results, collected in PMC12087591 (Drug Design, Development and Therapy, 2025).

System: COVID-19
Conditions: unvaccinated COVID-19 patients

CC(C)(C)[C@H](NC(=O)C(F)(F)F)C(=O)N1C[C@H]2[C@@H]([C@H]1C(=O)N[C@H](C#N)C[C@@H]1CCNC1=O)C2(C)C [nirmatrelvir]
reduction of hospitalization risk: 89%
